Experimental data taken from ChEMBL document CHEMBL1201862, “PubChem BioAssay data set” (2004).
The source made the active and inactive calls.

How the values were obtained:
[1] = target: T1, Botulinum neurotoxin type A (Clostridium botulinum (strain Hall / ATCC 3502 / NCTC 13319 / Type A), UniProt P0DPI1); assay: High-throughput multiplex microsphere dose response for inhibitors of toxin protease, specifically Botulinum neurotoxin light chain A protease, compounds from Powder Set 01.; assay type: functional, Clostridium botulinum A str. ATCC 3502; conditions: read-out: EC50_MICROM
Lethal factor = Lethal factor (Bacillus anthracis, UniProt P15917); assay: High-throughput multiplex microsphere dose response for inhibitors of toxin protease, specifically Lethal Factor protease, compounds from Powder Set 01.; assay type: functional, Bacillus anthracis str. A2012; conditions: read-out: EC50_MICROM
[2] = target: T1, Botulinum neurotoxin type A; assay: Confirmatory FRET assay using full length substrates for Botulinum neurotoxin light chain A protease, with Powder Set01.; assay type: functional
[3] = miR-122 activators in hepatoma reporter cells, dose response, cell-based, Huh7 psiCHECK-miR122, Renilla luciferase, cherry-picked (AID 651956); assay type: functional;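 further: huh7 hepatoma cells stably carrying a psiCHECK-2 miR-122 sensor plasmid; renilla luciferase signal reporting endogenous miR-122 activity after 48 h compound exposure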
[4] = inhibitors of PGC1a acetylation in cells, dose response, cell-based, cherry-picked samples (AID 720514); assay type: functional;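 further: potency may reflect raised or lowered acetylation signal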
[5] = HEK293T cytotoxicity, dose response, cytotoxicity control for miR-122 modulator project, cell-based, activator set, cherry-pick (AID 720690); assay type: functional;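 further: HEK293T human cells scored for general mammalian cytotoxicity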
[6] = P. falciparum Dd2 growth inhibitors, dose response, SYBR Green, cherry-picked samples (AID 1159567); assay type: functional, cell-based
[7] = HepG2 cell cytotoxicity, dose response, cytotoxicity control, cherry-picked samples (AID 1159577); assay type: functional, cell-based
[8] = MITF Orthogonal Assay: SK-MEL-5 CTG Assay Measured in Cell-Based System Using Plate Reader - 2084-02_Inhibitor_Dose_DryPowder_Activity_Set7.; assay type: functional
[9] = MITF: Counter assay: A375 proliferation Measured in Cell-Based System Using Plate Reader - 2084-03_Inhibitor_Dose_DryPowder_Activity_Set8.; assay type: functional; conditions: A-375
[10] = TRPM1 promoter luciferase reporter signal decrease, dose response, MITF inhibitor project, cell-based, SK-MEL-5, dry powder, set 8 (AID 624430); assay type: functional
Paired box protein Pax-8 = Paired box protein Pax-8 (Homo sapiens, UniProt Q06710); assay: inhibitors of PAX8-driven TPO luciferase reporter, dose response, RMG-I cells, cherry-pick (AID 687027); assay type: functional, cell-based;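 further: luciferase reporter driven by Pax8 target thyroperoxidase promoter measured by SteadyGlo luminescence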
[11] = PAX2 cell-based inhibition, dose response, selectivity assay for PAX8 inhibitor project, plate reader, dry powder samples (AID 743048); assay type: functional;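 further: HEK293 cells carrying a WT1 promoter luciferase reporter driven by expressed Pax2; potency is for inhibition of Pax2 driven reporter signal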
[12] = PAX5 activity inhibitors, dose response, selectivity assay for PAX8 inhibitor project, cell-based, plate reader, dry powder samples (AID 743047); assay type: functional;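 further: HEK293 cells carrying a Pax5 driven CD19 promoter luciferase reporter; potency of inhibitors that lower reporter luminescence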
[13] = cytotoxicity in OV-90 ovarian cancer cells, dose response, PAX8 inhibitor project, cell-based, plate reader, dry powder, SA8 (AID 743149); assay type: functional
[14] = T. cruzi growth inhibition in host cells, dose response, cell-based, plate reader, dry powder, set 2 (AID 652275); assay type: functional
[15] = T. cruzi intracellular amastigote growth inhibition, dose response, imaging, CA-I/72 strain, bovine embryo skeletal muscle, dry powder (AID 651885); assay type: functional, cell-based
[16] = target: Metabotropic glutamate receptor 3 (Rattus norvegicus, UniProt P31422); assay: mGlu3 NAM potency via calcium readout, dose response, mGlu3 NAM project, TREx293 cells, Galpha15, calcium flux (AID 651840); assay type: functional
[17] = target: Kappa-type opioid receptor (Homo sapiens, UniProt P41145); assay: OPRK1 antagonists, late-stage follow-up, cell-based, fluorescence, dose response (AID 652032); assay type: functional
Kappa-type opioid receptor, sequence (P41145 whole entry): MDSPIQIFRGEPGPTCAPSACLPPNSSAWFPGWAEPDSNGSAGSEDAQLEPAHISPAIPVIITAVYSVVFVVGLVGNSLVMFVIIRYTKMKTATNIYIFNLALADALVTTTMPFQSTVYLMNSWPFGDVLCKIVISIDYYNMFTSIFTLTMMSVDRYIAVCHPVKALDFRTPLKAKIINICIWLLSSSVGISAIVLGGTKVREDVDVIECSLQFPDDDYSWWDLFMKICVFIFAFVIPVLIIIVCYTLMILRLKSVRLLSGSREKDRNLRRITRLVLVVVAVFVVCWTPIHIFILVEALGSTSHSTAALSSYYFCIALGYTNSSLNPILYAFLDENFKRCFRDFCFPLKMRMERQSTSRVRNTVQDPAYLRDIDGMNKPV

T1 sequence (P0DPI1 2-448 limits assumed): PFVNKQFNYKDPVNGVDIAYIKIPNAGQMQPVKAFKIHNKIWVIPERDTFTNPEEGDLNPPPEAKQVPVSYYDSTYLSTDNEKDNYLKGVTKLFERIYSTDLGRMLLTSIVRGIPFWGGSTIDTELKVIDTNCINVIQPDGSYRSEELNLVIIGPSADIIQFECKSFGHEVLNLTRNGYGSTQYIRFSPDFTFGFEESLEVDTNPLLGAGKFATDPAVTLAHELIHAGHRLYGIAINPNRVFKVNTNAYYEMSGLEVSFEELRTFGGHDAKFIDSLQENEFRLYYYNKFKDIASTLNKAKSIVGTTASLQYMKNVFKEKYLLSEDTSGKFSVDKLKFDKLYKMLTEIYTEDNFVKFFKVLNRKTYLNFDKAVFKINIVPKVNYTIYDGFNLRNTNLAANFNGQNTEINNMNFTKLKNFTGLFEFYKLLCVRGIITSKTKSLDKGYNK
Paired box protein Pax-8, sequence (Q06710 whole entry): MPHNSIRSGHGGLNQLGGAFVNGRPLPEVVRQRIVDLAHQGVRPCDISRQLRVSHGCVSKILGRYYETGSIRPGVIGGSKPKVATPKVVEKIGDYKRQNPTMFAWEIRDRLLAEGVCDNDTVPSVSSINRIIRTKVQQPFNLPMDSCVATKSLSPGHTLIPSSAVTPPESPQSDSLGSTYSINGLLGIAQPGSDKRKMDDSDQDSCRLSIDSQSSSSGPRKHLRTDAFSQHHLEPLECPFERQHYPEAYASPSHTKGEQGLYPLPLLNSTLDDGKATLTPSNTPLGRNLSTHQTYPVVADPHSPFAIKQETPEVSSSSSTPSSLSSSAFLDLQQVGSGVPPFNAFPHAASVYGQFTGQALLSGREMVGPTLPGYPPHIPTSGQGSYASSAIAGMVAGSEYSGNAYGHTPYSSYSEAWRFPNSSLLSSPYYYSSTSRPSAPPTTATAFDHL
Metabotropic glutamate receptor 3, sequence (P31422 whole entry): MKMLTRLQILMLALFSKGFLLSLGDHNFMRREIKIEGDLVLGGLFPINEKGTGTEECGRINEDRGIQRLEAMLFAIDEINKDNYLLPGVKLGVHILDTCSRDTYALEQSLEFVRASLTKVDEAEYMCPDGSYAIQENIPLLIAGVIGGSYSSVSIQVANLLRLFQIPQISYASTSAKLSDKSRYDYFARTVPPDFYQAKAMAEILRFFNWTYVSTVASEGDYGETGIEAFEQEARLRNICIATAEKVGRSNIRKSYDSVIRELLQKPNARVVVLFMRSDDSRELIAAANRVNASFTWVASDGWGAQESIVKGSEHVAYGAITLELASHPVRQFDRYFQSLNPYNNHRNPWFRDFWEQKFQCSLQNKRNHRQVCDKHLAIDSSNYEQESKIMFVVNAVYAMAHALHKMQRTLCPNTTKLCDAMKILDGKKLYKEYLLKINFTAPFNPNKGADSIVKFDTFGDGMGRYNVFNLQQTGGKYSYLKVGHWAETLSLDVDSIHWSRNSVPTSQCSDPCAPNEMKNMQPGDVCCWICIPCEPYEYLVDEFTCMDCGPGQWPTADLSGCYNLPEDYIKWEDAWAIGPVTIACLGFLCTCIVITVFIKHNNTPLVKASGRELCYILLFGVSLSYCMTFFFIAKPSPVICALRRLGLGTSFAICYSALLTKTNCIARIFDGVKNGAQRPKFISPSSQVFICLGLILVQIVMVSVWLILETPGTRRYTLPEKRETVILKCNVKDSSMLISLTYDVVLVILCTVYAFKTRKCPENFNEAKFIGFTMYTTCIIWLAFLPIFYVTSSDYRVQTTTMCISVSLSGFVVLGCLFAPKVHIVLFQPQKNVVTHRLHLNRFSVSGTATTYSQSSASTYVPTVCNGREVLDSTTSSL
Lethal factor, sequence (P15917 whole entry): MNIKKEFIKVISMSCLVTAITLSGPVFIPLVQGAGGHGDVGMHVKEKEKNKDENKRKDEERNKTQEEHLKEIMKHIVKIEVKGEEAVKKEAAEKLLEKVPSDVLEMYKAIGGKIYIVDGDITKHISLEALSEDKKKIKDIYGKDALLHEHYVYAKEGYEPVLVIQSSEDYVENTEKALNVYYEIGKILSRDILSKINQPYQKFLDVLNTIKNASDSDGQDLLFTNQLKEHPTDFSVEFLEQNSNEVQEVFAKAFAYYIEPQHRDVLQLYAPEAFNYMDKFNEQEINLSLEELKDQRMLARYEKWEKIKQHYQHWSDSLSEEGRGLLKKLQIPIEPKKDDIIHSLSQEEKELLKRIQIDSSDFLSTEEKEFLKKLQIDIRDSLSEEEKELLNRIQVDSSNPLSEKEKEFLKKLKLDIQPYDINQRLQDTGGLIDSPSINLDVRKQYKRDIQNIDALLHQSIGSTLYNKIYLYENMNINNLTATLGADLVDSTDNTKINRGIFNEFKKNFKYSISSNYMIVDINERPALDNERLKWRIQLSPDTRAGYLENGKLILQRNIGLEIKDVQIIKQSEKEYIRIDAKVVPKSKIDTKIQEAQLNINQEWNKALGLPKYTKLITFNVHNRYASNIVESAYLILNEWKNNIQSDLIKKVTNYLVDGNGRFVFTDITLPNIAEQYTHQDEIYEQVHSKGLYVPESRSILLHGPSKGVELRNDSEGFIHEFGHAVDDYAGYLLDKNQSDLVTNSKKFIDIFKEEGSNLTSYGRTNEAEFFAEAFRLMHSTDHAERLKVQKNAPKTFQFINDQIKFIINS

## COc1ccc(C2CC(c3cccs3)=NN2c2nc(C)c(C(C)=O)s2)cc1OC (centres undefined)
[1]
  EC50: 7.5 µM (active)
Lethal factor
  EC50: 9.6 µM (active)
[2]
  EC50: 10.4 µM (active)

## O=C(Nc1ccc(F)cc1)N1CCCCN2[C@H](CO)[C@H](c3ccc(C#Cc4ccccc4)cc3)[C@H]2C1
[3]
  AC50: 7.46 µM (active)
[4]
  AC50: 17.2 µM (active)
[5]
  AC50: 7.78 µM (active)
[6]
  AC50: 1.2 µM (active)
[7]
  AC50: 9.51 µM (active)

## O=C1C=C(NCc2ccc(Cl)cc2)C(=O)c2ccccc21
[8]
  AC50: 53.3 µM (active)
[9]
  AC50: > 70 µM (inactive)
[10]
  AC50: > 70 µM (inactive)

## COc1ccc(S(=O)(=O)N2CCCCN3[C@H](CO)[C@H](c4ccc(C#CC(C)C)cc4)[C@H]3C2)cc1
Paired box protein Pax-8
  AC50: 10.4 µM (active)
[11]
  AC50: 40.7 µM (active)
[12]
  AC50: 36.8 µM (active)
[13]
  AC50: 65.5 µM (active)

## C[C@@H]1CN([C@@H](C)CO)C(=O)c2cccc(NC(=O)c3ccncc3)c2O[C@H]1CN(C)Cc1ccc(Cl)cc1
[14]
  AC50: 0.0633 µM (active)
[15]
  IC50: 0.02 µM (active)

## CCC1(O)CCCN(C(=O)c2ccc(C#Cc3ccc(OC)cc3)cc2)C1 (centres undefined)
[16]
  IC50: 1.8 µM

## COC(=O)c1cc(-c2ccccc2)cnc1N1CCC(NC2CCCCC2)CC1
[17]
  IC50: 6.2 µM (active)
